Key:
Cannabinoid receptor 1 = Cannabinoid receptor 1 (Homo sapiens, UniProt P21554); assay: Evaluated for binding affinity against recombinant human central cannabinoid receptor 1
Cannabinoid receptor 2 = Cannabinoid receptor 2 (Homo sapiens, UniProt P34972); assay: Evaluated for binding affinity against recombinant human peripheral cannabinoid receptor 2
Chain of Cannabinoid receptor 2 (P34972 whole entry): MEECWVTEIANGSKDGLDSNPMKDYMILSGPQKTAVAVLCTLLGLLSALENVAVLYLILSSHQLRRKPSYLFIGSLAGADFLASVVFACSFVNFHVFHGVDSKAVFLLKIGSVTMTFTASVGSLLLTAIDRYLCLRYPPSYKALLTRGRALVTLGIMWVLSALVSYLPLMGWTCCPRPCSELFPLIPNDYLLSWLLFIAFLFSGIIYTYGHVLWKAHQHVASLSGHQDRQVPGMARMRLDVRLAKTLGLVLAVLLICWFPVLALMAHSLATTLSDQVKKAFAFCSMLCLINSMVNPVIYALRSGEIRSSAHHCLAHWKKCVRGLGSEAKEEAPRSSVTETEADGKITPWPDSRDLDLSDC

Chain of Cannabinoid receptor 1 (P21554 whole entry): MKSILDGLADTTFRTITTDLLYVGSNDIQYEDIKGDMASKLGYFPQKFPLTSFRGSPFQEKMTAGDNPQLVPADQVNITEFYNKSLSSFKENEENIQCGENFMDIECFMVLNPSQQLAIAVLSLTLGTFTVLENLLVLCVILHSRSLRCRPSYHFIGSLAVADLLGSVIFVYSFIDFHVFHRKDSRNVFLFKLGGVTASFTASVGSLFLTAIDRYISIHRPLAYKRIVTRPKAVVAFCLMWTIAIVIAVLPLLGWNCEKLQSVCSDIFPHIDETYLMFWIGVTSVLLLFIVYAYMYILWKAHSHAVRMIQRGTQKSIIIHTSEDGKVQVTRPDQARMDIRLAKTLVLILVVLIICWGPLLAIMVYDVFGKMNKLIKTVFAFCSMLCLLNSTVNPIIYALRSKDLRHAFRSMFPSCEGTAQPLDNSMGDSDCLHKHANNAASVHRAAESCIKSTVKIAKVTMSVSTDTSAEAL

SMILES | Ki (Cannabinoid receptor 1) [nM] | Ki (Cannabinoid receptor 2) [nM]
Cc1c(C(=O)c2cccc3ccccc23)c2ccccc2n1CCN1CCOCC1 | 638 | 14
COC(=O)Cc1c(C)n(C(=O)c2ccccc2Cl)c2ccc(OC)cc12 | 1720 | 397
Cc1c(CCN2CCOCC2)c2ccccc2n1C(=O)c1cccc2ccccc12 | 2180 | 216
COc1ccc2c(c1)c(CC(=O)N1CCOCC1)c(C)n2C(=O)c1ccc(F)cc1Cl | 5570 | 134
COc1ccc2c(c1)c(CN1CCOCC1)c(C)n2C(=O)c1cccc(Cl)c1Cl | 3360 | 22
COc1ccc2c(c1)c(CC(=O)N1CCOCC1)c(C)n2Cc1cccc(Cl)c1Cl | > 20000 | 1050
Cc1c(CN2CCOCC2)c2ccccc2n1-c1cccc2ccccc12 | 6680 | 7840
COc1ccc2c(c1)c(CC(=O)N1CCOCC1)c(C)n2C(=O)c1c(Cl)cccc1Cl | 2550 | 59
COC(=O)Cc1c(C)n(C(=O)c2cccc3ccccc23)c2ccc(OC)cc12 | 4610 | 142
COc1ccc2c(c1)c(CC(=O)N1CCOCC1)c(C)n2C(=O)c1cccc(Cl)c1Cl | 2040 | 14
COc1ccc2c(c1)c(CCN1CCOCC1)c(C)n2C(=O)c1ccc(Cl)cc1 | 10300 | 213
Cc1c(CN2CCOCC2)c2ccccc2n1C(=O)c1cccc2ccccc12 | 877 | 8.5
COC(=O)Cc1c(C)n(C(=O)c2ccc(Cl)cc2)c2ccc(OC)cc12 | > 20000 | 4020
COc1ccc2c(c1)c(CCN1CCOCC1)c(C)n2C(=O)c1cccc(Cl)c1Cl | 1920 | 12
Cc1c(CCN2CCOCC2)c2ccccc2n1C(=O)c1cccc(Cl)c1Cl | 3190 | 27
COc1ccc2c(c1)c(CC(=O)N1CCOCC1)c(C)n2C(=O)c1cccc(Cl)c1 | 16800 | 354
COc1ccc2c(c1)c(CC(=O)N1CCOCC1)c(C)n2C(=O)c1ccccc1Cl | 3600 | 69
COc1ccc2c(c1)c(CC(=O)N1CCOCC1)c(C)n2C(=O)c1ccc(Cl)cc1 [INDOMETHACIN MORPHOLINYLAMIDE] | > 20000 | 435
COc1ccc2c(c1)c(CC(=O)O)c(C)n2C(=O)c1ccc(Cl)cc1 [INDOMETHACIN] |  | > 20000
